Measurements reported in patent US6358885B1, “Substituted phenylheterocyclic herbicides” (Mississippi State University, priority 1992, dated 2002).

Assays:
Experiment in all cases: Test B preemergence/postemergence greenhouse plant response rating 0 to 10
barley = format: in vivo, Hordeum vulgare; settings: for Plant response rating, Barley: 0 to 10 scale
Procedure, shortened: (§1)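 Planted seeds are treated preemergence with compound dissolved in a non-phytotoxic solvent, while postemergence applications go onto plants of two to eighteen cm. Plants stay in the greenhouse twelve to sixteen days and are then rated visually relative to controls.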

blackgrass = format: in vivo, Alopecurus myosuroides; settings: for Plant response rating, Blackgrass: 0 to 10 scale
Procedure, shortened: as §1

cheatgrass = format: in vivo, Bromus secalinus; settings: for Plant response rating, Cheatgrass: 0 to 10 scale
Procedure, shortened: as §1

crabgrass = format: in vivo, Digitaria spp.; settings: for Plant response rating, Crabgrass: 0 to 10 scale
Procedure, shortened: as §1

giant foxtail = format: in vivo, Setaria faberii; settings: for Plant response rating, Giant foxtail: 0 to 10 scale; for Plant response rating (0 to 10 scale), Giant foxtail: Rate 100 g/ha
Procedure, shortened: as §1

lambsquarters = format: in vivo, Chenopodium album; settings: for Plant response rating, Lambsquarter: 0 to 10 scale; for Plant response rating (0 to 10 scale), Lambsquarter: Rate 100 g/ha
Procedure, shortened: as §1

rape = format: in vivo, Brassica napus; settings: for Plant response rating, Rape: 0 to 10 scale; for Plant response rating (0 to 10 scale), Rape: Rate 100 g/ha
Procedure, shortened: as §1

soybean = format: in vivo, Glycine max; settings: for Plant response rating, Soybean: 0 to 10 scale; for Plant response rating (0 to 10 scale), Soybean: Rate 100 g/ha
Procedure, shortened: as §1

velvetleaf = format: in vivo, Abutilon theophrasti; settings: for Plant response rating, Velvetleaf: 0 to 10 scale
Procedure, shortened: as §1

purple nutsedge = format: in vivo, Cyperus rotundus; settings: for Plant response rating, Nutsedge: 0 to 10 scale; for Plant response rating (0 to 10 scale), Nutsedge: Rate 100 g/ha
Procedure, shortened: as §1

## Clc1ccc(-c2nc3n(c2Br)CCCC3)c(Cl)c1 [Compound 2]
barley; POSTEMERGENCE, Rate 50 g/ha
  Plant response rating (0 to 10 scale), Barley: 2
barley; POSTEMERGENCE, Rate 100 g/ha
  Plant response rating (0 to 10 scale), Barley: 2
barley; POSTEMERGENCE, Rate 200 g/ha
  Plant response rating, Barley: 3
barley; POSTEMERGENCE, Rate 400 g/ha
  Plant response rating, Barley: 2
barley; PREEMERGENCE, Rate 50 g/ha
  Plant response rating, Barley: 0
barley; PREEMERGENCE, Rate 100 g/ha
  Plant response rating (0 to 10 scale), Barley: 0
barley; PREEMERGENCE, Rate 400 g/ha
  Plant response rating, Barley: 0
barley; Rate 200 g/ha, PREEMERGENCE
  Plant response rating, Barley: 0
blackgrass; POSTEMERGENCE, Rate 50 g/ha
  Plant response rating (0 to 10 scale), Blackgrass: 1
blackgrass; POSTEMERGENCE, Rate 100 g/ha
  Plant response rating (0 to 10 scale), Blackgrass: 1
blackgrass; POSTEMERGENCE, Rate 200 g/ha
  Plant response rating, Blackgrass: 1
blackgrass; POSTEMERGENCE, Rate 400 g/ha
  Plant response rating, Blackgrass: 2
blackgrass; PREEMERGENCE, Rate 50 g/ha
  Plant response rating, Blackgrass: 0
blackgrass; PREEMERGENCE, Rate 100 g/ha
  Plant response rating (0 to 10 scale), Blackgrass: 0
blackgrass; PREEMERGENCE, Rate 400 g/ha
  Plant response rating, Blackgrass: 0
blackgrass; Rate 200 g/ha, PREEMERGENCE
  Plant response rating, Blackgrass: 0
cheatgrass; POSTEMERGENCE, Rate 50 g/ha
  Plant response rating (0 to 10 scale), Cheatgrass: 2
cheatgrass; POSTEMERGENCE, Rate 100 g/ha
  Plant response rating (0 to 10 scale), Cheatgrass: 2
cheatgrass; POSTEMERGENCE, Rate 200 g/ha
  Plant response rating, Cheatgrass: 3
cheatgrass; POSTEMERGENCE, Rate 400 g/ha
  Plant response rating, Cheatgrass: 4
cheatgrass; PREEMERGENCE, Rate 50 g/ha
  Plant response rating, Cheatgrass: 0
cheatgrass; PREEMERGENCE, Rate 100 g/ha
  Plant response rating (0 to 10 scale), Cheatgrass: 0
cheatgrass; PREEMERGENCE, Rate 400 g/ha
  Plant response rating, Cheatgrass: 0
cheatgrass; Rate 200 g/ha, PREEMERGENCE
  Plant response rating, Cheatgrass: 0
crabgrass; POSTEMERGENCE, Rate 50 g/ha
  Plant response rating (0 to 10 scale), Crabgrass: 3
crabgrass; POSTEMERGENCE, Rate 100 g/ha
  Plant response rating (0 to 10 scale), Crabgrass: 3
crabgrass; POSTEMERGENCE, Rate 200 g/ha
  Plant response rating, Crabgrass: 7
crabgrass; POSTEMERGENCE, Rate 400 g/ha
  Plant response rating, Crabgrass: 7
crabgrass; PREEMERGENCE, Rate 50 g/ha
  Plant response rating, Crabgrass: 0
crabgrass; PREEMERGENCE, Rate 100 g/ha
  Plant response rating (0 to 10 scale), Crabgrass: 0
crabgrass; Rate 200 g/ha, PREEMERGENCE
  Plant response rating, Crabgrass: 0
Giant foxtail; POSTEMERGENCE, Rate 50 g/ha
  Plant response rating, Giant foxtail: 4
Giant foxtail; POSTEMERGENCE
  Plant response rating (0 to 10 scale), Giant foxtail: 4
Giant foxtail; POSTEMERGENCE, Rate 200 g/ha
  Plant response rating, Giant foxtail: 5
Giant foxtail; POSTEMERGENCE, Rate 400 g/ha
  Plant response rating, Giant foxtail: 6
Giant foxtail; PREEMERGENCE, Rate 50 g/ha
  Plant response rating, Giant foxtail: 0
Giant foxtail; PREEMERGENCE
  Plant response rating (0 to 10 scale), Giant foxtail: 0
Giant foxtail; PREEMERGENCE, Rate 400 g/ha
  Plant response rating, Giant foxtail: 7
Giant foxtail; Rate 200 g/ha, PREEMERGENCE
  Plant response rating, Giant foxtail: 0
lambsquarters; POSTEMERGENCE, Rate 50 g/ha
  Plant response rating, Lambsquarter: 9
lambsquarters; POSTEMERGENCE
  Plant response rating (0 to 10 scale), Lambsquarter: 9
lambsquarters; POSTEMERGENCE, Rate 200 g/ha
  Plant response rating, Lambsquarter: 9
lambsquarters; POSTEMERGENCE, Rate 400 g/ha
  Plant response rating, Lambsquarter: 9
lambsquarters; PREEMERGENCE, Rate 50 g/ha
  Plant response rating, Lambsquarter: 0
lambsquarters; PREEMERGENCE
  Plant response rating (0 to 10 scale), Lambsquarter: 0
lambsquarters; Rate 200 g/ha, PREEMERGENCE
  Plant response rating, Lambsquarter: 6
rape; POSTEMERGENCE, Rate 50 g/ha
  Plant response rating, Rape: 5
rape; POSTEMERGENCE
  Plant response rating (0 to 10 scale), Rape: 3
rape; POSTEMERGENCE, Rate 200 g/ha
  Plant response rating, Rape: 9
rape; POSTEMERGENCE, Rate 400 g/ha
  Plant response rating, Rape: 9
rape; PREEMERGENCE, Rate 50 g/ha
  Plant response rating, Rape: 0
rape; PREEMERGENCE
  Plant response rating (0 to 10 scale), Rape: 0
rape; PREEMERGENCE, Rate 400 g/ha
  Plant response rating, Rape: 0
rape; Rate 200 g/ha, PREEMERGENCE
  Plant response rating, Rape: 0
soybean; POSTEMERGENCE, Rate 50 g/ha
  Plant response rating, Soybean: 6
soybean; POSTEMERGENCE
  Plant response rating (0 to 10 scale), Soybean: 6
soybean; POSTEMERGENCE, Rate 200 g/ha
  Plant response rating, Soybean: 6
soybean; POSTEMERGENCE, Rate 400 g/ha
  Plant response rating, Soybean: 7
soybean; PREEMERGENCE, Rate 50 g/ha
  Plant response rating, Soybean: 0
soybean; PREEMERGENCE
  Plant response rating (0 to 10 scale), Soybean: 0
soybean; PREEMERGENCE, Rate 400 g/ha
  Plant response rating, Soybean: 0
soybean; Rate 200 g/ha, PREEMERGENCE
  Plant response rating, Soybean: 0
velvetleaf; POSTEMERGENCE, Rate 50 g/ha
  Plant response rating, Velvetleaf: 9
velvetleaf; POSTEMERGENCE, Rate 100 g/ha
  Plant response rating (0 to 10 scale), Velvetleaf: 8
velvetleaf; POSTEMERGENCE, Rate 200 g/ha
  Plant response rating, Velvetleaf: 8
velvetleaf; POSTEMERGENCE, Rate 400 g/ha
  Plant response rating, Velvetleaf: 9
velvetleaf; PREEMERGENCE, Rate 50 g/ha
  Plant response rating, Velvetleaf: 0
velvetleaf; PREEMERGENCE, Rate 400 g/ha
  Plant response rating, Velvetleaf: 4
velvetleaf; Rate 200 g/ha, PREEMERGENCE
  Plant response rating, Velvetleaf: 0
Purple nutsedge; POSTEMERGENCE, Rate 50 g/ha
  Plant response rating, Nutsedge: 0
Purple nutsedge; POSTEMERGENCE
  Plant response rating (0 to 10 scale), Nutsedge: 0
Purple nutsedge; POSTEMERGENCE, Rate 200 g/ha
  Plant response rating, Nutsedge: 0
Purple nutsedge; POSTEMERGENCE, Rate 400 g/ha
  Plant response rating, Nutsedge: 0
Purple nutsedge; PREEMERGENCE, Rate 50 g/ha
  Plant response rating, Nutsedge: 0
Purple nutsedge; PREEMERGENCE
  Plant response rating (0 to 10 scale), Nutsedge: 0
Purple nutsedge; PREEMERGENCE, Rate 400 g/ha
  Plant response rating, Nutsedge: 0
Purple nutsedge; Rate 200 g/ha, PREEMERGENCE
  Plant response rating, Nutsedge: 0
